Experimental data published in patent US8034940B2, “Modulators of glucocorticoid receptor, AP-1, and/or NF-κB activity and use thereof” (Bristol-Myers Squibb Company, priority 2006, dated 2011).

These compounds were tested against T1, human full-length glucocorticoid receptor (Homo sapiens, UniProt P04150) (assay: Glucocorticoid Receptor Binding Assay (I), fluorescence polarization, Fluormone GS Red). Conditions: GR Binding Assay (I); read-out: GR (Ki, nM) (GR Binding Assay (I)).
T1 sequence (P04150 1-777): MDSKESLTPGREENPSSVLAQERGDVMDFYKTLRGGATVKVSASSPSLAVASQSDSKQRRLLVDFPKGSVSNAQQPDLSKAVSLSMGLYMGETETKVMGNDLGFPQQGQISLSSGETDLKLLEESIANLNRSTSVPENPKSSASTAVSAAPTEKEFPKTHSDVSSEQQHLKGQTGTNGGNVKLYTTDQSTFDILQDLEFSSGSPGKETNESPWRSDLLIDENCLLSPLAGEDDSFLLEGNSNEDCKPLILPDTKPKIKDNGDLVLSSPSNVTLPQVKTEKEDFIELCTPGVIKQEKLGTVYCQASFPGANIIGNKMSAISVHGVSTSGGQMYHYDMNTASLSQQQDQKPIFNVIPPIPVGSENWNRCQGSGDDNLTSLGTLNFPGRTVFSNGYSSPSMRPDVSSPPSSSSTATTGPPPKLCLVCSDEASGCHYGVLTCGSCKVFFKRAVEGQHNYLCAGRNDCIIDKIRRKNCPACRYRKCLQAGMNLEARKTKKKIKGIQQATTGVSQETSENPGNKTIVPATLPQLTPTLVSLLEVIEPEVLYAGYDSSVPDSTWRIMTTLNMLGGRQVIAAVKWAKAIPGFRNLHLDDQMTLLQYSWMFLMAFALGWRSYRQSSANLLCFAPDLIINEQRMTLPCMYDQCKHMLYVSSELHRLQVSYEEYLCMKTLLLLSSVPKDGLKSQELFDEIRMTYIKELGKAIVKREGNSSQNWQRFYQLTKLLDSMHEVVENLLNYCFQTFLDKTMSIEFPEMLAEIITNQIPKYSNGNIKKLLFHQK
Design: purified human recombinant full-length glucocorticoid receptor; purchased Invitrogen Part #2893
Method: Glucocorticoid Receptor Binding Assay (I)^a
Briefly, purified human recombinant full-length glucocorticoid receptor (2 nM) was mixed with fluorescently labeled glucocorticoid (1 nM Fluormone GS Red) in the presence or absence of test compound. After two hour incubation at room temperature in the dark, the fluorescence polarization (FP) of the samples was measured. […] Test compounds were analyzed in the concentration range from 8.5E-05 μM to 5 μM.

Ki [nM]	Compound
25.8	CC(C)(C(=O)Nc1nncs1)[C@H]1c2ccccc2Oc2nc(-c3ccc(C(=O)N4CCNC(=O)CC4)cc3)ccc21 [Example 311]
4.65	CN(C(=O)c1ccc(-c2ccc3c(n2)Oc2ccccc2[C@@H]3C(C)(C)C(=O)Nc2nncs2)cc1)C1CCS(=O)(=O)C1 (stereo partly drawn) [Example 313]
23.7	CC(C)CC1CCCN1C(=O)c1ccc(-c2ccc3c(n2)Oc2ccccc2[C@@H]3C(C)(C)C(=O)Nc2nncs2)cc1 (stereo partly drawn) [Example 317]
110	CN(C)C(=O)CN(C)C(=O)c1ccc(-c2ccc3c(n2)Oc2ccccc2[C@@H]3C(C)(C)C(=O)Nc2nncs2)cc1 [Example 319]
13.1	CCN(CCO)C(=O)c1ccc(-c2ccc3c(n2)Oc2ccccc2[C@@H]3C(C)(C)C(=O)Nc2nncs2)cc1 [Example 320]
30.6	CNC(=O)C1CCN(C(=O)c2ccc(-c3ccc4c(n3)Oc3ccccc3[C@@H]4C(C)(C)C(=O)Nc3nncs3)cc2)CC1 [Example 321]
18.9	CC(C)(C(=O)Nc1nncs1)[C@H]1c2ccccc2Oc2nc(-c3ccc(C(=O)N4CCCC(=O)CC4)cc3)ccc21 [Example 322]
3.69	CC(C)(C(=O)Nc1nncs1)[C@H]1c2ccccc2Oc2nc(-c3ccc(C(=O)N4CCCOCC4)cc3)ccc21 [Example 323]
10.5	CN(CCC#N)C(=O)c1ccc(-c2ccc3c(n2)Oc2ccccc2[C@@H]3C(C)(C)C(=O)Nc2nncs2)cc1F [Example 326]
312	CN(CC(=O)O)C(=O)c1ccc(-c2ccc3c(n2)Oc2ccccc2[C@@H]3C(C)(C)C(=O)Nc2nncs2)cc1 [Example 338]
3.04	CCCN(C)C(=O)c1ccc(-c2ccc3c(n2)Oc2ccccc2[C@@H]3C(C)(C)C(=O)Nc2nncs2)cc1Cl [Example 346]
5.63	COc1cc(-c2ccc3c(n2)Oc2ccccc2[C@@H]3C(C)(C)C(=O)Nc2nncs2)ccc1C(=O)N(C)C [Example 347]
147	CC(C)(C(=O)Nc1nncs1)[C@H]1c2ccccc2Oc2nc(-c3ccc(C(=O)NC4CCCC4)cc3)ccc21 [Example 351]
42.1	CC(C)(C)NC(=O)c1ccc(-c2ccc3c(n2)Oc2ccccc2[C@@H]3C(C)(C)C(=O)Nc2nncs2)cc1 [Example 352]
13	CC(C)NC(=O)c1ccc(-c2ccc3c(n2)Oc2ccccc2[C@@H]3C(C)(C)C(=O)Nc2nncs2)cc1 [Example 353]
19.6	COCCNC(=O)c1ccc(-c2ccc3c(n2)Oc2ccccc2[C@@H]3C(C)(C)C(=O)Nc2nncs2)cc1 [Example 355]
40.5	CCCNC(=O)c1ccc(-c2ccc3c(n2)Oc2ccccc2[C@@H]3C(C)(C)C(=O)Nc2nncs2)cc1 [Example 358]
30.1	CC(C)(C(=O)Nc1nncs1)[C@H]1c2ccccc2Oc2nc(-c3ccc(C(=O)NCCCO)cc3)ccc21 [Example 359]
154	CC(C)(C(=O)Nc1nncs1)[C@H]1c2ccccc2Oc2nc(-c3ccc(C(=O)N[C@H]4CCC[C@H]4C(N)=O)cc3)ccc21 [Example 360]
14.6	CNC(=O)c1ccc(-c2ccc3c(n2)Oc2ccccc2[C@@H]3C(C)(C)C(=O)Nc2nncs2)cc1OC [Example 361]
805	CN(C)C(=O)c1ccc(-c2ccc3c(n2)Oc2ccccc2C3C(C)(C)C(=O)NC(C)(C)C)cc1 (stereo not drawn) [Example 362]
18.3	Cc1nc(NC(=O)C(C)(C)C2c3ccccc3Oc3nc(-c4ccc(C(=O)N(C)C)cc4)ccc32)sc1C (stereo not drawn) [Example 365]
200	CN(C)C(=O)c1ccc(-c2ccc3c(n2)Oc2ccccc2C3C(C)(C)C(=O)Nc2ccn(C)n2)cc1 (stereo not drawn) [Example 366]
692	CN(C)C(=O)c1ccc(-c2ccc3c(n2)Oc2ccccc2C3C(C)(C)C(=O)NCC(F)(F)F)cc1 (stereo not drawn) [Example 367]
1.19	CC(C)(C(=O)Nc1nncs1)[C@H]1c2ccccc2Oc2nc(C#N)ccc21 [Example 395]
10.6	CC(C)(C(=O)Nc1nncs1)[C@H]1c2ccccc2Oc2nc(C(=O)NCc3ccccc3)ccc21 [Example 396]
40.9	CC(=O)c1ccc2c(n1)Oc1ccccc1[C@@H]2C(C)(C)C(=O)Nc1nncs1 [Example 397]
